Measurements as given in patent EP3800188A1, “SUBSTITUTED PYRAZOLOPYRIMIDINES AS IRAK4 INHIBITORS” (Bayer AG, priority 2019, dated 2021).
Where two headings read alike, the source gives them in different places.

How the values were obtained:
[1] = target: T1, human IRAK4 (Homo sapiens, UniProt Q9NWZ3); test: Human IRAK4 kinase activity inhibition assay (IRAK4 TR-FRET assay); format: biochemical; conditions: 1 mM ATP, GST-human IRAK4, average or median values
T1 construct: GST (N); made in house; host or cells: baculovirus-infected Hi5 (BTI-TN-5B1-4) insect cells
T1 sequence (Q9NWZ3 1-460): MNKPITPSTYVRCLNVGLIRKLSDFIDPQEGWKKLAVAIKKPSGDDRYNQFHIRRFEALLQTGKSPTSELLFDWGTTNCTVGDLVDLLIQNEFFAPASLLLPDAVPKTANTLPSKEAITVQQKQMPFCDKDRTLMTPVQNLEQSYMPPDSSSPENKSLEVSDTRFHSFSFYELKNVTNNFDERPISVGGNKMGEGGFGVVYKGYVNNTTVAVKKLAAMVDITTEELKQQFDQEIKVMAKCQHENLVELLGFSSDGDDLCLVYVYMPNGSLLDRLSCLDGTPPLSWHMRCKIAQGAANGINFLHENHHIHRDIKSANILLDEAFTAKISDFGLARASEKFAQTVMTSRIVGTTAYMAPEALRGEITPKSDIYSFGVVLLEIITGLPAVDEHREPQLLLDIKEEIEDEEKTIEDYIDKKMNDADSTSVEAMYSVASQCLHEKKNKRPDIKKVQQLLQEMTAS
Summary of the method: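 Signal was the 665/620 nm emission ratio from a europium anti-mouse-IgG, anti-phosphoserine antibody and streptavidin-XL665 complex formed over 1 h at 22°C. It was scaled between no-enzyme (100%) and no-compound (0%) wells. Beforehand, compounds (20 µM down to 0.073 nM, 11 points) sat 15 min with roughly 0.2 nM insect-cell-expressed GST-human IRAK4 before phosphorylation of a biotinylated peptide substrate.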

[2] = target: T2, canine Irak4 (Canis lupus familiaris, UniProt A0A8I3S726); test: Canine Irak4 kinase assay (TR-FRET); format: biochemical; conditions: 1 mM ATP, His6-tagged canine Irak4, average or median values
T2 sequence (A0A8I3S726 2-459): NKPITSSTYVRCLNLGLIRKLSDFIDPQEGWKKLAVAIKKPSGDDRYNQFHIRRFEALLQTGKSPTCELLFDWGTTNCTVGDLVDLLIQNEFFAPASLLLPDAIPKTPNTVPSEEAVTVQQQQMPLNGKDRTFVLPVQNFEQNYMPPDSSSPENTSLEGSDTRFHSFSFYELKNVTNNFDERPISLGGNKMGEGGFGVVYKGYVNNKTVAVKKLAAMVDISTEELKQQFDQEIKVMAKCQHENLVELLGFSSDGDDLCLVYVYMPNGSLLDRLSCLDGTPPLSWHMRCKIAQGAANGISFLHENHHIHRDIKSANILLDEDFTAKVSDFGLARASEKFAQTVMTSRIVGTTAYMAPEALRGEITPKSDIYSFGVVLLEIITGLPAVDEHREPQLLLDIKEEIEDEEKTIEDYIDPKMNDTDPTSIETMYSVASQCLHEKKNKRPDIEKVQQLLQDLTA

[3] = Metabolic stability in human liver microsomes; conditions: 1 µM compound; for CLblood, human microsomes: hepatic in vivo blood clearance calculated with well stirred liver model, '(stable)' given beside < 0.01; for Fmax, human microsomes: maximal oral bioavailability calculated with well stirred liver model, 0.5 mg/mL protein, '(stable)' given beside 100
Procedure: (§1) The in vitro metabolic stability of test compounds was determined by incubating them at 1 µM in a suspension liver microsomes in 100 mM phosphate buffer, pH7.4 (NaH2PO4 x H2O + Na2HPO4 x 2H2O) and at a protein concentration of 0.5 mg/mL at 37° C. The microsomes were activated by adding a co-factor mix containing 8 mM Glukose-6-Phosphat, 4 mM MgCl2, 0.5 mM NADP and 1 IU/mL G-6-P-Dehydrogenase in phosphate buffer, pH 7.4. The metabolic assay was started shortly afterwards by adding the test compound to the incubation at a final volume of 1 mL. Organic solvent in the incubations was limited to ≤0.01 % dimethylsulfoxide (DMSO) and ≤1% acetonitril. During incubation, the microsomal suspensions were continuously shaken at 580 rpm, and aliquots were taken at 2, 8, 16, 30, 45 and 60 min, to which equal volumes of cold methanol were immediately added. Samples were frozen at -20° C over night, subsequently centrifuged for 15 min at 3000 rpm and the supernatant was analyzed with an Agilent 1200 HPLC-system with LCMS/MS detection.
(§2) The half-life of a test compound was determined from the concentration-time plot. From the half-life the intrinsic clearances were calculated. Together with the additional parameters liver blood flow, specific liver weight and microsomal protein content the hepatic in vivo blood clearance (CL) and the maximal oral bioavailability (Fmax) were calculated using the "well stirred" liver model. The following parameter values were used: Liver blood flow - 1.32 L/h/kg (human), 2.1 L/h/kg (dog); specific liver weight - 21 g/kg (human), 39 g/kg (dog); microsomal protein content - 40 mg/g.

[4] = system: human PBMCs; test: In vitro LPS-induced cytokine (TNF-α) production in human PBMCs; format: cell-based; conditions: PBMC, 0.1 µg/mL LPS, 24 hours, 30 min preincubation, read-out: activity (LPS-induced TNF-α secretion in human PBMCs)
Procedure: The effect of the compounds of the general formula (I) on induced cytokine production in human PBMCs was examined.
Cytokine production was induced here by LPS, a TLR4 ligand, which leads to activation of the IRAK4-mediated signal path.
The human PBMCs were obtained from anti-coagulated human whole blood. To this end, 15 mL of Ficoll-Paque (Biochrom, Cat. No. L6115) were initially charged in Leucosep tubes and 20 mL of human blood were added. After centrifugation of the blood at 800 g for 15 min at room temperature, the plasma including the platelets was removed and discarded. The PBMCs were transferred into centrifugation tubes and made up with PBS (phosphate-buffered saline) (Gibco, Cat. No. 14190). The cell suspension was centrifuged at room temperature at 250 g for 10 min and the supernatant was discarded. The PBMCs were resuspended in complete medium (RPMI 1640, without L-glutamine (PAA, Cat. No. E15-039), 10% FCS; 50 U/mL penicillin, 50 µg/mL streptomycin (PAA, Cat. No. P11-010) and 1% L-glutamine (Sigma, Cat. No. G7513)). The assay was also carried out in complete medium. The PBMCs were sown in 96-well plates at a cell density of 2.5x10^5 cells/well. The compounds according to the invention were subjected to serial dilution in a constant volume of 100% DMSO and used in the assay at 8 different concentrations in the range from 10 µM to 3 nM such that the final DMSO concentration was 0.4% DMSO. Prior to the actual stimulation, the cells were then preincubated therewith for 30 min. To induce cytokine secretion, the cells were stimulated with 0.1 µg/mL LPS (Sigma, Escherichia coli 0128:B12, Cat. No. L2887) for 24 hours. Cell viability was determined using the CellTiter-Glo luminescent assay (Promega, Cat. No. G7571 (G755/G756A)) in accordance with the manufacturer's instructions. The amount of secreted TNF-α in the cell culture supernatant was determined using the Human ProInflammatory 9-Plex Tissue Culture Kit (MSD, Cat. No. K15007B) in accordance with the instructions of the manufacturer. By way of example, Example Compounds II-2, I-40, I-56, I-61 have activity ≤ 500 nM.

[5] = 1 µM, pH 7.4
Procedure: as §1, §2

[6] = Metabolic stability in dog liver microsomes; format: in vitro ADME; conditions: 1 µM compound; for CLblood, dog microsomes: hepatic in vivo blood clearance calculated with well stirred liver model, '(stable)' given beside < 0.01; for Fmax, dog microsomes: maximal oral bioavailability calculated with well stirred liver model, 0.5 mg/mL protein, '(stable)' given beside 100
Procedure: From the half-life the intrinsic clearances were calculated.

Compound | IC50 [1] [nM] | IC50 [2] [nM] | CLblood, human microsomes [3] [mL/min/kg] | Fmax, human microsomes [3] [%] | IC50 [4] [nM] | CLblood, human microsomes [5] | Fmax, human microsomes [5] | CLblood, dog microsomes [6] [mL/min/kg] | Fmax, dog microsomes [6] [%]
CC(C)(O)C1CCN(c2nc(NC3CCS(=O)(=O)CC3)nc3c2cnn3-c2cccc(C(F)(F)F)c2)CC1 [Example I-5, 2-(1-{6-[(1,1-dioxidotetrahydro-2H-thiopyran-4-yl)amino]-1-[3-(trifluoromethyl)phenyl]-1H-pyrazolo[3,4-d]pyrimidin-4-yl)piperidin-4-yl)propan-2-ol] | 10.5 | 9.27 | 1.5 | 93 |  |  |  |  | 
CN1CC[C@H](Nc2nc(N3CCC(C(C)(C)O)CC3)c3cnn(-c4cccc(C(F)(F)F)c4)c3n2)C1 [Example I-13-1, 2-[1-(6-{[(3S)-1-methylpyrrolidin-3-yl]amino}-1-[3-(trifluoromethyl)phenyl]-1H-pyrazolo[3,4-d]pyrimidin-4-yl)piperidin-4-yl]propan-2-ol] | 13.1 | 26.4 | 8.33 | 62 |  |  |  |  | 
CC(C)(O)C1CCN(c2nc(NC3CN(S(C)(=O)=O)C3)nc3c2cnn3-c2cccc(C(F)(F)F)c2)CC1 [Example I-14, 2-[1-(6-{[1-(methylsulfonyl)azetidin-3-yl]amino}-1-[3-(trifluoromethyl)phenyl]-1H-pyrazolo[3,4-d]pyrimidin-4-yl)piperidin-4-yl]propan-2-ol] | 12 | 12.7 | 1.2 | 95 |  |  |  |  | 
O=S1(=O)CCC(Nc2nc(N3CC(N4CCOCC4)C3)c3cnn(-c4cccc(C(F)(F)F)c4)c3n2)CC1 [Example I-23, N-(1,1-dioxidotetrahydro-2H-thiopyran-4-yl)-4-[3-(morpholin-4-yl)azetidin-1-yl]-1-[3-(trifluoromethyl)phenyl]-1H-pyrazolo[3,4-d]pyrimidin-6-amine] | 8.82 | 5.41 | 2.83 | 87 |  |  |  |  | 
C[C@H]1C[C@H](Nc2nc(N3CCC(C(C)(C)O)CC3)c3cnn(-c4cccc(C(F)(F)F)c4)c3n2)CN1 [Example I-40, 2-[1-(6-{[(3S,5S)-5-methylpyrrolidin-3-yl]amino}-1-[3-(trifluoromethyl)phenyl]-1H-pyrazolo[3,4-d]pyrimidin-4-yl)piperidin-4-yl]propan-2-ol] | 3.68 |  | 1.2 | 95 | ≤ 500 |  |  |  | 
O=C1C[C@H](Nc2nc(N3CC(CC(=O)N4CC5CC(C4)O5)C3)c3cnn(-c4cccc(C(F)(F)F)c4)c3n2)CN1 [Example I-52, (4S)-4-[(4-{3-[2-(6-oxa-3-azabicyclo[3.1.1]heptan-3-yl)-2-oxoethyl]azetidin-1-yl}-1-[3-(trifluoromethyl)phenyl]-1H-pyrazolo[3,4-d]pyrimidin-6-yl)amino]pyrrolidin-2-one] | 7.99 |  |  |  |  | < 0.01 (stable) L/h/kg | 100 (stable) % |  | 
CS(=O)(=O)[C@H]1C[C@H](Nc2nc(N3CC(N4CCOCC4)C3)c3cnn(-c4cccc(C(F)(F)F)c4)c3n2)C1 [Example I-56, N-[trans-3-(methylsulfonyl)cyclobutyl]-4-[3-(morpholin-4-yl)azetidin-1-yl]-1-[3-(trifluoromethyl)phenyl]-1H-pyrazolo[3,4-d]pyrimidin-6-amine] | 3.46 |  | 1 | 95 | ≤ 500 |  |  | 1 | 97
CC(C)(O)C1CCN(c2nc(N[C@H]3C[C@](C)(N)C3)nc3c2cnn3-c2cccc(C(F)(F)F)c2)CC1 [Example I-57, 2-(1-{6-[(trans-3-amino-3-methylcyclobutyl)amino]-1-[3-(trifluoromethyl)phenyl]-1H-pyrazolo[3,4-d]pyrimidin-4-yl}piperidin-4-yl)propan-2-ol] | 1.82 | 1.98 | 0.67 | 97 |  |  |  |  | 
CC1(O)CCN(C2CN(c3nc(N[C@H]4C[C@H](S(C)(=O)=O)C4)nc4c3cnn4-c3cccc(C(F)(F)F)c3)C2)CC1 [Example I-61, 4-methyl-1-[1-(6-{[trans-3-(methylsulfonyl)cyclobutyl]amino}-1-[3-(trifluoromethyl)-phenyl]-1H-pyrazolo[3,4-d]pyrimidin-4-yl)azetidin-3-yl]piperidin-4-ol] | 3.28 |  | 5.17 | 77 | ≤ 500 |  |  |  | 
O=S1(=O)CCC(Nc2nc(N3CC(N4CCOCC4)C3)c3cnn(-c4cccc(C(F)F)c4)c3n2)CC1 [II-2, 1-[3-(difluoromethyl)phenyl]-N-(1,1-dioxidotetrahydro-2H-thiopyran-4-yl)-4-[3-(morpholin-4-yl)azetidin-1-yl]-1H-pyrazolo[3,4-d]pyrimidin-6-amine] | 6.68 |  | 2.5 | 88 | ≤ 500 |  |  | 1.2 | 97
CC(C)(O)C1CCN(c2nc(N[C@@H]3CNC(=O)C3)nc3c2cnn3-c2cccc(OC(F)F)c2)CC1 [IV-1, (4S)-4-({1-[3-(difluoromethoxy)phenyl]-4-[4-(2-hydroxypropan-2-yl)piperidin-1-yl]-1H-pyrazolo[3,4-d]pyrimidin-6-yl}amino)pyrrolidin-2-one] | 8.06 | 6.52 | 3 | 86 |  |  |  |  | 
